Laboratory results reported in patent US20220195432A9 (priority 2020, published 2022).

Legend:
MHV [1] = assay type: in vivo, mice
IAV = tested on: IAV; set-up: species or system mice; conditions: mouse, in vivo
MHV [2] = assay type: in vivo; conditions: IFNar knockout mice infected with MHV, paquinimod nasal drop group, FIG. 17
SARS-CoV2 = SARS-CoV2 infection of human ACE2 mice, paquinimod nasal drop group versus control; assay type: in vivo
[3] = MHV-infected lung tissues of IFNar knockout mice, FIG. 18
[4] = SARS-CoV2 pneumonia animal model

CCc1cccc2c1c(O)c(C(=O)N(CC)c1ccccc1)c(=O)n2C [paquinimod]
inflammation and lung damage caused by inflammation (MHV [1]; [3]): reducing inflammation and lung damage
lung S100A8 gene expression (MHV [1]; [3]): not up-regulated
activation of neutrophils caused by coronavirus infection (MHV [1]; coronavirus-infected mice): inhibit the activation of neutrophils
replication of MHV (MHV [1]; lung tissues of IFNar knockout mice, FIG. 18): inhibiting replication
survival rate (IAV): no significant difference
survival rate (MHV [2]): increased survival rate
replication of SARS-CoV-2 (SARS-CoV2; FIG. 18): inhibiting replication
inflammation level (SARS-CoV2; [4]): decreasing the inflammation level
virus titer in tissues (SARS-CoV2; [4]): inhibits the virus titer in tissues
